In article PMC8548536, “Establishment of high-throughput screening HTRF assay for identification small molecule inhibitors of Skp2-Cks1” (Scientific Reports, 2021):

Key:
[1] = biological target: T1, S-phase kinase associated protein 2 (Skp2) (Homo sapiens, UniProt P61024+Q13309); test: HTRF Skp2/Skp1-Cks1 binding inhibition assay; also CETSA of Skp2 in SGC-7901 cells
T1 construct: GST-Skp2/Skp1; with Skp1; Cks1 (His6-Cks1)

[2] = biological target: T1, S-phase kinase associated protein 2 (Skp2); test: HTRF Skp2/Skp1-Cks1 binding inhibition assay

T1 sequence (Q13309 whole entry): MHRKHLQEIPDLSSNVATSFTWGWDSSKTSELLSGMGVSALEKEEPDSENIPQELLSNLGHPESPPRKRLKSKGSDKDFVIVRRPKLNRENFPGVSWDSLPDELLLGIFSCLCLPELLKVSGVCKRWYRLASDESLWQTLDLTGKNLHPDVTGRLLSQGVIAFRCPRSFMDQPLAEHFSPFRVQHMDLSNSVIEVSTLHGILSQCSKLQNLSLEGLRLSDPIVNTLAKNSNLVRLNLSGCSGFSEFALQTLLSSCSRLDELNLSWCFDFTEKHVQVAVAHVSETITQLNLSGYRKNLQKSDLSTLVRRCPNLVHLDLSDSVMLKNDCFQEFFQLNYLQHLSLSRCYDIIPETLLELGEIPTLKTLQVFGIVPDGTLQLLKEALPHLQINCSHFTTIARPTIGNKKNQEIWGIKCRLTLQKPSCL
T1 sequence (P61024 2-79): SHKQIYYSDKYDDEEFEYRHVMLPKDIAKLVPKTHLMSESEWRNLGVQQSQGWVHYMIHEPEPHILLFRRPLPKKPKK
T1 sequence (P63208 2-163 partner): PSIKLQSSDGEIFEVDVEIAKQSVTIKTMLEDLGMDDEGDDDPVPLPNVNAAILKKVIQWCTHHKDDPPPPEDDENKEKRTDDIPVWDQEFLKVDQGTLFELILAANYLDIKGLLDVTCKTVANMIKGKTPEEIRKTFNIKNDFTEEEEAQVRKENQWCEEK

IC50 [1] [µM] | IC50 [2] [µM] | SMILES
2.14 ± 0.76 | – | C=CC(=O)Nc1cccc(-c2nnc(SCc3ccccc3)n2C)c1 [SYK-031]
– | 58.7 ± 1.62 | COC(=O)c1ccc(CCc2cc(O)ccc2O)cc1 [Skp2-1, NSC681152]
27.8 ± 1.44 | – | Cc1ccc(S(=O)(=O)Nc2cccc3cccnc23)cc1 [Skp2-2]
